Assay results from PubChem BioAssay AID1963451 (Molecular Pharmacology Branch, DTP, NCI, 2024).

Test system: 521955-158-R6-J3-PDC complex spheroid growth, % test/control
Assay: Anticancer human tumor 521955-158-R6-J3-PDC patient-derived pancreatic carcinoma cell line growth inhibition [Asc]
Details: for IC50: curve of first compound; for viability, T/C: stronger effect = lower value; active means viability on the fitted dose curve at most 10% of control; inactive means the rest
Procedure, shortened: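 Complex spheroids combining tumor cells with HUVEC endothelial cells and human MSCs, at 37 degrees C, 5% CO2; agents tested alone or combined, half-log dilutions from at or near clinical Cmax, or 10 microM if Cmax unknown.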
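Further: spheroids exposed to compounds for 7 days.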
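Wherever viability, T/C is given: 100% = DMSO vehicle control wells.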

C=CC(=O)N1CCN(c2nc(=O)n(-c3c(C)ccnc3C(C)C)c3nc(-c4c(O)cccc4F)c(F)cc23)C(C)C1 (configuration not stated) + CNC(C)C(=O)NC1CN(S(=O)(=O)c2cccc(S(=O)(=O)N3CCC4CCC(C(=O)NC(c5ccccc5)c5ccccc5)N4C(=O)C(NC(=O)C(C)NC)C3)c2)CCC2CCC(C(=O)NC(c3ccccc3)c3ccccc3)N2C1=O
> 10 µM: IC50 (second compound 0.00316 µM) | IC50 (second compound 0.01 µM) | IC50 (second compound 0.0316 µM) | IC50 (second compound 0.1 µM) | IC50 (second compound 0.316 µM) | IC50 (second compound 1 µM)
inactive: viability, T/C (second compound 0.00316 µM, first compound 0.0316 µM) 98.2% | viability, T/C (second compound 0.00316 µM, first compound 0.1 µM) 110% | viability, T/C (second compound 0.00316 µM, first compound 0.316 µM) 116% | viability, T/C (second compound 0.00316 µM, first compound 1 µM) 121% | viability, T/C (second compound 0.00316 µM, first compound 3.16 µM) 98.8% | viability, T/C (second compound 0.00316 µM, first compound 10 µM) 80.4% | viability, T/C (second compound 0.01 µM, first compound 0.0316 µM) 121% | viability, T/C (second compound 0.01 µM, first compound 0.1 µM) 85.3% | viability, T/C (second compound 0.01 µM, first compound 0.316 µM) 89.8% | viability, T/C (second compound 0.01 µM, first compound 1 µM) 94.9% | viability, T/C (second compound 0.01 µM, first compound 3.16 µM) 105% | viability, T/C (second compound 0.01 µM, first compound 10 µM) 81.3% | viability, T/C (second compound 0.0316 µM, first compound 0.0316 µM) 95.2% | viability, T/C (second compound 0.0316 µM, first compound 0.1 µM) 76.5% | viability, T/C (second compound 0.0316 µM, first compound 0.316 µM) 108% | viability, T/C (second compound 0.0316 µM, first compound 1 µM) 95.1% | viability, T/C (second compound 0.0316 µM, first compound 3.16 µM) 104% | viability, T/C (second compound 0.0316 µM, first compound 10 µM) 70.8% | viability, T/C (second compound 0.1 µM, first compound 0.0316 µM) 92.2% | viability, T/C (second compound 0.1 µM, first compound 0.1 µM) 78.7% | viability, T/C (second compound 0.1 µM, first compound 0.316 µM) 88% | viability, T/C (second compound 0.1 µM, first compound 1 µM) 108% | viability, T/C (second compound 0.1 µM, first compound 3.16 µM) 93% | viability, T/C (second compound 0.1 µM, first compound 10 µM) 66.7% | viability, T/C (second compound 0.316 µM, first compound 0.0316 µM) 89.7% | viability, T/C (second compound 0.316 µM, first compound 0.1 µM) 91.6% | viability, T/C (second compound 0.316 µM, first compound 0.316 µM) 79.2% | viability, T/C (second compound 0.316 µM, first compound 1 µM) 107% | viability, T/C (second compound 0.316 µM, first compound 3.16 µM) 100% | viability, T/C (second compound 0.316 µM, first compound 10 µM) 84.2% | viability, T/C (second compound 1 µM, first compound 0.0316 µM) 81.4% | viability, T/C (second compound 1 µM, first compound 0.1 µM) 82.5% | viability, T/C (second compound 1 µM, first compound 0.316 µM) 89.5% | viability, T/C (second compound 1 µM, first compound 1 µM) 88.7% | viability, T/C (second compound 1 µM, first compound 3.16 µM) 94.6% | viability, T/C (second compound 1 µM, first compound 10 µM) 83.5%
